pH data for 1 compound are collected here from EP0274444A2, “Solution inbuprofen complexes, compositions and processes for preparing the same” (priority 1987, dated 1988).

This data set can be described thus: pH of the resulting solutions (pH meter with combination electrode). It is filed as physicochemical. The following applies: Mole Ratio Cyclodextrin:Ibuprofen 0:1 (ibuprofen alone, saturated solution). Here is the method: The pH of each solution was measured using an Orion Model 701 pH meter with a combination electrode.

As to `CC(C)Cc1ccc(C(C)C(=O)O)cc1` (stereo not shown) [Ibuprofen, ibuprofen], the pH is listed as 4.56.
